Results from article PMC12748989 (Nature Communications, 2025).

Legend:
[1] = tested on: MDA-MB-231 cells
[2] = tested on: PBMC; conditions: 12.5 µM

| SMILES | Average (percentage cell inhibition), Dmastoparan MDA-MB231 12.5uM [1] | Average (percentage cell inhibition), Mastoparan PBMC [2] |
| --- | --- | --- |
| CC[C@H](C)[C@H](N)C(=O)N[C@@H](CC(N)=O)C(=O)N[C@@H](CC(C)C)C(=O)N[C@@H](CCCCN)C(=O)N[C@@H](C)C(=O)N[C@@H](CC(C)C)C(=O)N[C@@H](C)C(=O)N[C@@H](C)C(=O)N[C@@H](CC(C)C)C(=O)N[C@@H](C)C(=O)N[C@@H](CCCCN)C(=O)N[C@@H](Cc1c[nH]c2ccccc12)C(=O)N[C@H](C(=O)N[C@@H](CC(C)C)C(N)=O)[C@@H](C)CC [W12] | 64.637% | 73.0011% |
| CC[C@H](C)[C@H](N)C(=O)N[C@@H](CC(N)=O)C(=O)N[C@@H](CC(C)C)C(=O)N[C@@H](CCCNC(=N)N)C(=O)N[C@@H](C)C(=O)N[C@@H](CC(C)C)C(=O)N[C@@H](C)C(=O)N[C@@H](C)C(=O)N[C@@H](CC(C)C)C(=O)N[C@@H](C)C(=O)N[C@@H](CCCCN)C(=O)N[C@@H](CCCCN)C(=O)N[C@H](C(=O)N[C@@H](CC(C)C)C(N)=O)[C@@H](C)CC [R4] | 36.9563% | 0.667% |
| CC[C@H](C)[C@H](N)C(=O)N[C@@H](CC(N)=O)C(=O)N[C@@H](CC(C)C)C(=O)N[C@@H](CCCCN)C(=O)N[C@@H](C)C(=O)N[C@@H](CC(C)C)C(=O)N[C@@H](Cc1c[nH]cn1)C(=O)N[C@@H](C)C(=O)N[C@@H](CC(C)C)C(=O)N[C@@H](C)C(=O)N[C@@H](CCCCN)C(=O)N[C@@H](CCCCN)C(=O)N[C@H](C(=O)N[C@@H](CC(C)C)C(N)=O)[C@@H](C)CC [H7] | 37.3401% | 4.935% |
| CC[C@H](C)[C@H](NC(=O)[C@H](CCCCN)NC(=O)[C@H](CCCCN)NC(=O)[C@H](C)NC(=O)[C@H](CC(C)C)NC(=O)[C@H](C)NC(=O)[C@H](C)NC(=O)[C@H](CC(C)C)NC(=O)[C@H](C)NC(=O)[C@H](CCCCN)NC(=O)[C@H](CC(C)C)NC(=O)[C@H](CC(N)=O)NC(=O)[C@@H](N)CCCCN)C(=O)N[C@@H](CC(C)C)C(N)=O [K1] | 35.9182% | 1.227% |
| CC[C@H](C)[C@H](N)C(=O)N[C@@H](CC(N)=O)C(=O)N[C@@H](CC(C)C)C(=O)N[C@@H](CCCCN)C(=O)N[C@@H](C)C(=O)N[C@@H](CC(C)C)C(=O)N[C@@H](C)C(=O)N[C@@H](C)C(=O)N[C@@H](CC(C)C)C(=O)N[C@H](C(=O)N[C@@H](CCCCN)C(=O)N[C@@H](CCCCN)C(=O)N[C@H](C(=O)N[C@@H](CC(C)C)C(N)=O)[C@@H](C)CC)[C@@H](C)CC [I10] | 54.8759% | 25.836% |
| CC[C@H](C)[C@H](N)C(=O)N[C@@H](CC(N)=O)C(=O)N[C@@H](CC(C)C)C(=O)N[C@@H](CCCCN)C(=O)N[C@@H](C)C(=O)N[C@@H](CC(C)C)C(=O)N[C@@H](C)C(=O)N[C@@H](CCC(=O)O)C(=O)N[C@@H](CC(C)C)C(=O)N[C@@H](C)C(=O)N[C@@H](CCCCN)C(=O)N[C@@H](CCCCN)C(=O)N[C@H](C(=O)N[C@@H](CC(C)C)C(N)=O)[C@@H](C)CC [E8] | 39.5903% | 13.1597% |
| CC[C@H](C)[C@H](NC(=O)[C@H](CCCCN)NC(=O)[C@H](CCCCN)NC(=O)[C@H](C)NC(=O)[C@H](CC(C)C)NC(=O)[C@H](C)NC(=O)[C@H](C)NC(=O)[C@H](CC(C)C)NC(=O)[C@H](C)NC(=O)[C@H](CCCCN)NC(=O)[C@H](CC(C)C)NC(=O)[C@H](CC(N)=O)NC(=O)CN)C(=O)N[C@@H](CC(C)C)C(N)=O [G1] | 44.9778% | 6.436% |
| CC[C@H](C)[C@H](N)C(=O)N[C@@H](CC(N)=O)C(=O)N[C@@H](CC(C)C)C(=O)N[C@@H](CCCCN)C(=O)N[C@@H](C)C(=O)N[C@@H](CC(C)C)C(=O)N[C@@H](C)C(=O)N[C@@H](C)C(=O)N[C@@H](CC(C)C)C(=O)N[C@@H](C)C(=O)N[C@@H](CCCCN)C(=O)N[C@@H](CCCCN)C(=O)N1CCC[C@H]1C(=O)N[C@@H](CC(C)C)C(N)=O [P13] | -16.5854% | -11.6187% |
